Consider one molecule from PMC12663298, “Sibiriline, a novel dual inhibitor of necroptosis and ferroptosis, prevents RIPK1 kinase activity and (phospho)lipid peroxidation as a potential therapeutic strategy” (Cell Death Discovery, 2025).

Assay type in all cases: biochemical
One experiment has as its target KIT (Homo sapiens, UniProt P10721). In words: enzymatic kinase assay (Eurofins) at KM,ATP.
The target of another experiment is JAK2 (Homo sapiens, UniProt O60674). In words: enzymatic kinase assay (Eurofins) at KM,ATP.
JAK2, sequence (O60674 whole entry): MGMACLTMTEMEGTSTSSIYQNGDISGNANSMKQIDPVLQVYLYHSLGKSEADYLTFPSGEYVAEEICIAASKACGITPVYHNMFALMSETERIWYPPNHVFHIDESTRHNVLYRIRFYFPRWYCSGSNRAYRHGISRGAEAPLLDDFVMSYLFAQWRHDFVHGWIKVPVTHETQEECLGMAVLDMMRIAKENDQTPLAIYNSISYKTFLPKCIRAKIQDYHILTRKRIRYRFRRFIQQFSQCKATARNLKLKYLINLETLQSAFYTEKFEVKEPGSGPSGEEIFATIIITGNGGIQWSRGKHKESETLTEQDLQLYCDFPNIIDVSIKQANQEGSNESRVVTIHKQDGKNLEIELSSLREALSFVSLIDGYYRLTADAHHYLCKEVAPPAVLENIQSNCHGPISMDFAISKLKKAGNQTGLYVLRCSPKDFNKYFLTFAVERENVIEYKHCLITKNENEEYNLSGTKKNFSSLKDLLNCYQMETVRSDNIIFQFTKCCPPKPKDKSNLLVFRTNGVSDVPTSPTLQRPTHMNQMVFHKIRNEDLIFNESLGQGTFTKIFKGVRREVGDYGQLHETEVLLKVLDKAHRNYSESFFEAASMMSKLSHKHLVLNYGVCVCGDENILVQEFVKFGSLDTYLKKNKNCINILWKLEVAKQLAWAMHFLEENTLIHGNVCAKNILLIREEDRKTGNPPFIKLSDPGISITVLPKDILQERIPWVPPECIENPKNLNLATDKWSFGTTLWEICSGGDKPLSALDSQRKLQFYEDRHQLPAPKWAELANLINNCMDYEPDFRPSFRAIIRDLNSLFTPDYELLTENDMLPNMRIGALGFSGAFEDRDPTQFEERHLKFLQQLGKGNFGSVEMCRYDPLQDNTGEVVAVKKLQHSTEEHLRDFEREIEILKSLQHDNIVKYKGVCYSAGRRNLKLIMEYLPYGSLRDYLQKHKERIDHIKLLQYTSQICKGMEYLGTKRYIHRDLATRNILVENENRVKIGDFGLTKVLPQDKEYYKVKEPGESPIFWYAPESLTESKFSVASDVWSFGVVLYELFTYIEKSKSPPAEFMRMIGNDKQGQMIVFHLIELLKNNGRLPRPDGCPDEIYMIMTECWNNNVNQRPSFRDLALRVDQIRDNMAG
The target of a further experiment is T1, DRAK2 (Homo sapiens, UniProt O94768).
T1 construct: gene STK17B
T1 sequence (O94768 1-372): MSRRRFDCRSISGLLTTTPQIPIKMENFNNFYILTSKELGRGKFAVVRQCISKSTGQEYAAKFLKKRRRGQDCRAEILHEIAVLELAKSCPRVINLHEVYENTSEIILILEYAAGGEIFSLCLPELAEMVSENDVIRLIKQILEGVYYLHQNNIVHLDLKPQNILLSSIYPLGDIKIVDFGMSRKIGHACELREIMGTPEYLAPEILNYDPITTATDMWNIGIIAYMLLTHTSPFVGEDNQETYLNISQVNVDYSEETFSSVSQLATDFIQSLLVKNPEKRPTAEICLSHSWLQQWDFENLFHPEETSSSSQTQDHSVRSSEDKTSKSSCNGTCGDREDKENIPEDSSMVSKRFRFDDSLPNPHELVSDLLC
In words: enzymatic kinase assay (Eurofins) at KM,ATP.

In another experiment the target is T2, AURKC (Homo sapiens, UniProt Q9UQB9).
T2 sequence (Q9UQB9 1-309): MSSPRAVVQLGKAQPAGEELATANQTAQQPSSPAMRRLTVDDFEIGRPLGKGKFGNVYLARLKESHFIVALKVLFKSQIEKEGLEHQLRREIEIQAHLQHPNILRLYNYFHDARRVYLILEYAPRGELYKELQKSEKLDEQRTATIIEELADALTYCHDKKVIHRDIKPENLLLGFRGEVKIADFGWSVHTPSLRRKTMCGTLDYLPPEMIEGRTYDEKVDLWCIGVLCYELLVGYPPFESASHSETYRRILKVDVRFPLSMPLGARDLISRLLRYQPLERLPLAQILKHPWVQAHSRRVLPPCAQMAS
In words: enzymatic kinase assay (Eurofins) at KM,ATP.

The target in the next experiment is T3, PDGFR-β (Homo sapiens, UniProt P09619).
T3 construct: gene PDGFRB
T3 sequence (P09619 33-1106): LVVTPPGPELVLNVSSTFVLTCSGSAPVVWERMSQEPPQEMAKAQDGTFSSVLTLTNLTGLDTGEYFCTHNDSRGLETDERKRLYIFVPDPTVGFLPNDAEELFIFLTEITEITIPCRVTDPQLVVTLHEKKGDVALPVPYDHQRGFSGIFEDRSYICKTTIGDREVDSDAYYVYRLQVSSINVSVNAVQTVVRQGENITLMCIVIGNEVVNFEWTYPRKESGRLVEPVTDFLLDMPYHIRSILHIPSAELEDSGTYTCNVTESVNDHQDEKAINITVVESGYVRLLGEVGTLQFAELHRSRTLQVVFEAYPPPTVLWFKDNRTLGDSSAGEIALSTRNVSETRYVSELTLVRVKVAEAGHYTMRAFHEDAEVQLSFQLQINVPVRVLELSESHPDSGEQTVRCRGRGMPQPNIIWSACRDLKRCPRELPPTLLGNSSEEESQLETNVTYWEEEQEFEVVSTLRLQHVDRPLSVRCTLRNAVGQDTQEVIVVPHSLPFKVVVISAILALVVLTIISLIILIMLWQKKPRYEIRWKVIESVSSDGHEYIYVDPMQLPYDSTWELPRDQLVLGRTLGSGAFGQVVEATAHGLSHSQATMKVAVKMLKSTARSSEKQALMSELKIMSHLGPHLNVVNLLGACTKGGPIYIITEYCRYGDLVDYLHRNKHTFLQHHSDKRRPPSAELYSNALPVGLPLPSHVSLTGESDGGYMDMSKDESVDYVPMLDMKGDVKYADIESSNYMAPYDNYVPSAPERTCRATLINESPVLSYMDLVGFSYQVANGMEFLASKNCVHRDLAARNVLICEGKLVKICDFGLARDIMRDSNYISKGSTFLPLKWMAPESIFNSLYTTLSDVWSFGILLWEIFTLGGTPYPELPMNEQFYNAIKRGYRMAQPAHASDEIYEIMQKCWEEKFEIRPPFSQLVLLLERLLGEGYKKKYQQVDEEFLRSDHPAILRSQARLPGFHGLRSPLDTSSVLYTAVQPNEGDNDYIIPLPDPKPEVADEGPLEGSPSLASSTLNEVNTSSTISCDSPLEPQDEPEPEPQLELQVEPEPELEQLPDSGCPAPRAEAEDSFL
In words: enzymatic kinase assay (Eurofins) at KM,ATP.

Another experiment has as its target ABL1 (Homo sapiens, UniProt P00519). In words: ADP-Glo kinase assay at KM,ATP. Background: ADP-Glo first removes unused ATP, then detects ADP through luciferase.

ABL1, sequence (P00519 whole entry): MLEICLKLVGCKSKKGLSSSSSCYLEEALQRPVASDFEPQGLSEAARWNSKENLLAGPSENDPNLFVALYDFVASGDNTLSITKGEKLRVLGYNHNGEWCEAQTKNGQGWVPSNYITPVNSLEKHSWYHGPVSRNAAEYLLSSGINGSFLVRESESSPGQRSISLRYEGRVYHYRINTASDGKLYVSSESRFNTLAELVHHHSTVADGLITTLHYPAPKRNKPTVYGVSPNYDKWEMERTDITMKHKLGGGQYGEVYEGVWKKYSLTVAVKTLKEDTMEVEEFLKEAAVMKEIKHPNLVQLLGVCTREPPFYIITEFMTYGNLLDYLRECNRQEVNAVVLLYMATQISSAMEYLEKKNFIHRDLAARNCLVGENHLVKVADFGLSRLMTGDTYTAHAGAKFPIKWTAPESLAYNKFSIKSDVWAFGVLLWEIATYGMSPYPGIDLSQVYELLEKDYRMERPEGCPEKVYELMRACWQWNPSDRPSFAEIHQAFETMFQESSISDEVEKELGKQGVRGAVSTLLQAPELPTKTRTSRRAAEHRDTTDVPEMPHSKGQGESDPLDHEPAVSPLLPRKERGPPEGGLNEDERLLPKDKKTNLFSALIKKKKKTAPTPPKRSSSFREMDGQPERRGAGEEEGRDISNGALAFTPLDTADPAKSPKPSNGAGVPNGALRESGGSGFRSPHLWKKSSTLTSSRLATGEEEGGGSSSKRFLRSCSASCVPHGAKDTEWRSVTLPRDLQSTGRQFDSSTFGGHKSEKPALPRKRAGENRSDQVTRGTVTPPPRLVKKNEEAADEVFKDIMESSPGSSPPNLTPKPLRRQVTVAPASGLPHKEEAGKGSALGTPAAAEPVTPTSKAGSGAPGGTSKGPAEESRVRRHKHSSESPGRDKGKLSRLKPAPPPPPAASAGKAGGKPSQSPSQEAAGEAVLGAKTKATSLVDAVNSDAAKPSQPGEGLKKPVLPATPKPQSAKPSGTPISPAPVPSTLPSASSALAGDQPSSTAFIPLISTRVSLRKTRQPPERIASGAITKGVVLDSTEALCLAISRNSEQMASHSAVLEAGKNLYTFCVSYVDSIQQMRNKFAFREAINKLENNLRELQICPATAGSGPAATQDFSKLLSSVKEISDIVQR
KIT, sequence (P10721 26-976): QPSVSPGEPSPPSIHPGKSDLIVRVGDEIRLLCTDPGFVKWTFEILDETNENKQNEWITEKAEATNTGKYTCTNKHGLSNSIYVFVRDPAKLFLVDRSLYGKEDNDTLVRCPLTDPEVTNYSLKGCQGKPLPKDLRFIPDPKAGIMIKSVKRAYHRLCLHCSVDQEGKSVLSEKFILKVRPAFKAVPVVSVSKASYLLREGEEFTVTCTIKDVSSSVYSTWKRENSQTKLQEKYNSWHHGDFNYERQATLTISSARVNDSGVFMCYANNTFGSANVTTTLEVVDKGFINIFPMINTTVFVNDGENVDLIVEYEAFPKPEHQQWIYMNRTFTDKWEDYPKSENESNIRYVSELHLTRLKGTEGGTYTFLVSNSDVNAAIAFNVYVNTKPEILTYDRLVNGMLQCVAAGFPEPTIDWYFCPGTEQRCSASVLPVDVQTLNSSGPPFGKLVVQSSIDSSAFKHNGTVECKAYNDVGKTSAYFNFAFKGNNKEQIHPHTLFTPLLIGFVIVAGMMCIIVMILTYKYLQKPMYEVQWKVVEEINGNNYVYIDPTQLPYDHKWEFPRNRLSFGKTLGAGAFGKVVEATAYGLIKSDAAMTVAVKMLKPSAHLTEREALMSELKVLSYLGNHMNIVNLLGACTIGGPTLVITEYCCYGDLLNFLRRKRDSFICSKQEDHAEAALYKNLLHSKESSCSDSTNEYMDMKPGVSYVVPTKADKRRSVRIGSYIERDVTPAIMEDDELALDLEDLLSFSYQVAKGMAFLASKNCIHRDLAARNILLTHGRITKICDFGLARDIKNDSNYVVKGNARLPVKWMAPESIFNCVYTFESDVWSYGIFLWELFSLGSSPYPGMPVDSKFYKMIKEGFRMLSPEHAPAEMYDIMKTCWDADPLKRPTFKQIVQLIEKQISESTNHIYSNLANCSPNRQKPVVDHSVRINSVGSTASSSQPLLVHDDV

`Oc1ccc(-c2cc3cccnc3[nH]2)cc1` [compound 1, 4-(1H-pyrrolo[2,3-b]pyridin-2-yl)phenol]: the IC50 result against KIT, at JAK2, at DRAK2, against AURKC, at PDGFR-β and against ABL1 was “All kinases tested showed inhibition in the µM range” each time.
